Values joined by “and” are separate entries in the source; they are usually repeats but may differ in a detail not shown here. Identical values can stand only once.

A word on the Cmax: it is the maximum level reached in the sampled fluid or tissue.

For data set [1] the following is noted: mouse, in vivo. From the text:
(§1) Mice (Mus musculus) were bred in the Netherlands Cancer Institute and housed and handled according to institutional guidelines complying with Dutch and EU legislation. Animals used were WT, Abcb1a/1b^-/- [39], Abcg2^-/- [40], Abcb1a/1b;Abcg2^-/- [41], Cyp3a^-/- [42], and Oatp1a/1b^-/- [43] mice of a >99% FVB/N strain background. Homozygous CYP3A4 humanized transgenic mice (Cyp3aXAV) were generated by cross-breeding of transgenic mice with stable human CYP3A4 expression in the liver or intestine, respectively, in a Cyp3a^-/- background. Proper functionality of the knockout and transgenic strains was monitored by regular testing with a variety of drug substrates. All the mice used were between 10 and 15 weeks of age. Animals were kept in a temperature-controlled environment with a 12 h light/12 h dark cycle and received a standard diet (Transbreed, SDS Diets, Technilab-BMI, The Netherlands) and acidified water ad libitum. Depending on the type of experiment, 5 or 6 mice were tested in each experimental group. All experimental animal protocols, including power calculations, were ethically assessed and designed under the nationally approved DEC/CCD project AVD301002016595 (approval date, 10 August 2016) and evaluated and approved by the institutional animal care and use committee (IACUC) of the Netherlands Cancer Institute.
(§2) EAI045 was dissolved in dimethyl sulfoxide (DMSO) at a concentration of […], and then diluted with a mixture of polysorbate 80/ethanol (1:1, v/v), and further diluted with 5% (w/v) glucose in water to yield a concentration of 2 mg/mL. Final concentrations for DMSO, polysorbate 80, ethanol, and glucose in the dosing solution were 5%, 2.5%, 2.5%, and 4.5% (v/v/v/w), respectively. Elacridar hydrochloride was dissolved in DMSO at a concentration of 53 mg/mL, then diluted with a mixture of polysorbate 80, ethanol, and water [20:13:67, (v/v/v)] to yield a concentration of 5 mg/mL elacridar. The final oral dose of elacridar was 50 mg/kg body weight. All dosing solutions were prepared freshly on the day of experiment.
(§3) To minimize variation in absorption, mice were fasted for about 3 h before EAI045 was administered by gavage into the stomach (n = 5–6), using a blunt-ended needle. EAI045 was administered orally at dose of 20 mg/kg. Elacridar was administered orally at a dose of 50 mg/kg, 3 h prior to oral EAI045 administration. For the 24- or 4-h experiments, tail vein blood samplings were performed at 5 min, 30 min, 1, 2, 4, and 8 h, or 5 min, 15 min, 30 min, 1, and 2 h time points after oral administration of EAI045, respectively, using microvettes containing heparin. For the 30 min experiments, blood samplings were performed at 5, 10, and 20 min from the tail vein. At the last time point (24 h, 4 h, or 30 min), mice were anesthetized with isoflurane and blood was collected by cardiac puncture. Then, mice were sacrificed by cervical dislocation and brain, liver, spleen, kidneys, lung, small intestine with content (SIWC), and testis were rapidly removed and weighed. Tissues were homogenized on ice in appropriate volumes of 2% (w/v) BSA. Blood samples were centrifuged at 9000× g for 6 min at 4 °C immediately after collection. All samples were stored at −30 °C until analysis.

Data set [2] in a line: 30-min pharmacokinetic experiment with oral elacridar coadministration in WT mice. As to the method: Considering the potential therapeutic benefit of increasing EAI045 brain penetration, and possibly also plasma exposure, we investigated to what extent elacridar, a dual ABCB1 and ABCG2 inhibitor, could increase the brain penetration and oral exposure of EAI045. We performed a 30-min pharmacokinetic experiment with an EAI045 dose of 20 mg/kg, and elacridar at 50 mg/kg. As elacridar plasma concentration peaks around 3–4 h after oral administration, elacridar was administered orally 3 h prior to oral EAI045 administration to male WT mice. Plasma and tissue EAI045 levels were determined 30 min later.
as §1, §2
as §3, with “collection.” for “collection. All samples were stored at −30 °C until analysis.”

Where [3] appears, read: WT + elacridar compared to Abcb1a/1b;Abcg2-/- mice, 30 min.
Setting [4] is: male WT mice + elacridar, EAI045 20 mg/kg oral, 30 min.
[5] abbreviates: male WT mice + elacridar, EAI045 20 mg/kg oral, plasma.

`O=C(Nc1nccs1)C(c1cc(F)ccc1O)N1Cc2ccccc2C1=O` (centres unmarked) [EAI045]: the “kidney-to-plasma ratio, fold change” value in data set [1] is 1.6 fold. Further, the “systemic exposure of EAI045” value in data set [1] (po, 20 mg/kg) is on record as “not changed”. Moreover, the “plasma AUC0–30min, fold increase” value in data set [2] (WT + elacridar compared to Abcb1a/1b;Abcg2-/- mice) was found to be 2.4 fold. Moreover, in data set [2] (setting [3]), the “SIWC%, fold decrease” value came to 3.5 fold and the “SIWC%-to-plasma ratio, fold decrease” value came to 8.6 fold. Further, in data set [2] (WT + elacridar vs WT, 30 min), the “Fold change Cbrain” value was 17 fold and 17.0 fold; the “Fold change Ctestis” value came out at 8.7 fold; the “Fold change Kp.SIWC%” value came out at 0.032 fold; the “Fold change Kp.brain” value is reported as 5.4 fold. Further, in data set [2] (WT + elacridar vs WT, 30 min), the “Fold change Kp.testis” value came to 2.6 fold; the “Fold change SIWC%” value was 0.13 fold; the “Kp.SIWC% (SIWC%-to-plasma ratio), fold decrease” value is on record as 30.8 fold; the “SIWC%, fold decrease” value was 7.5 fold. Besides, in data set [2] (WT + elacridar vs WT, plasma AUC0–30min, EAI045 20 mg/kg oral, 20 mg/kg), the “Fold change AUC” value is 4 fold and 4.0 fold. The “Plasma AUC0–30min” value in data set [2] (male WT mice + elacridar 50 mg/kg oral 3 h before, EAI045 20 mg/kg oral) is recorded as 549 ± 82 ***^. +++ h*ng/mL. In data set [2] (setting [4]), the “Cbrain (brain concentration)” value is 395.9 ± 123.1 ***^. +++ ng/g, the “Ctestis (testis concentration)” value is 198.7 ± 58.9 ***^. +++ ng/g, the “Kp.SIWC% (SIWC%-to-plasma ratio)” value was 5.13 ± 2.63 and the “Kp.brain (brain-to-plasma ratio)” value turned out to be 0.560 ± 0.200. Further, in data set [2] (setting [4]), the “Kp.testis (testis-to-plasma ratio)” value came out at 0.280 ± 0.096 and the “SIWC% (drug percentage of dose in small intestine with content)” value was determined as 4.00 ± 2.57 %. Moreover, in data set [2] (setting [5]), the Cmax was found to be 1512 ± 260 ng/mL and the tmax lay within 10 to 30 min.

These data come from PMC9505538, “P-Glycoprotein (MDR1/ABCB1) Restricts Brain Accumulation of the Novel EGFR Inhibitor EAI045 and Oral Elacridar Coadministration Enhances Its Brain Accumulation and Oral Exposure” (Pharmaceuticals, 2022).
